Assay results as given in US20050054582A1, “Para-amino benzoic acids as integrin antagonists” (priority 2001, published 2005).
Where two headings read alike, the source gives them in different places.

System: adhesion of Ramos cells to VCAM-1
Assay: Adhesion of Ramos cells to immobilized VCAM-1 (domains 1-3)
Type: cell-based
Settings: Homo sapiens
Text: In Vitro Assay: Adhesion of Ramos Cells to Immobilized VCAM-1 (Domains 1-3) Preparation of VCAM-1 (Extracellular Domains 1-3)
Complementary DNA (cDNA) encoding 7-domain form of VCAM-1 (GenBank accession #M60335) was obtained using Rapid-Screen™ cDNA library panels (OriGene Technologies, Inc) at Takara Gene Analysis Center (Shiga, Japan). The primers used were 5′-CCAAGGCAGAGTACGCAAAC-3′ (sense) and 5′-TGGCAGGTATTATTAAGGAG-3′ (antisense). PCR amplification of the 3-domain VCAM-1 cDNA was perform using Pfu DNA polymerase (Stratagene) with the following sets of primers: (U-VCAMd1-3) 5′-CCATATGGTACCTGATCAATTTAAAATCGAGACCACCCCAGAA-3′; (L-VCAMdl-3) 5-CCATATAGCAATCCTAGGTCCAGGGGAGATCTCAACAGTAAA-3′. PCR cycle was 94° C. for 45 sec, 55° C. for 45 sec, 72° C. for 2 min, repeating 15 cycles. After the purification of the PCR product, the fragment was digested with KpnI-AvrII. The digested fragment was ligated into pBluescript IISK(−) (Strategene), which was linearized by digesting with KpnI-XhoI. The ligation was followed by transformation to a Dam/Dcm methylase-free E. coli strain SCS110 (Strategene) to create the donor plasmid […]. To direct VCAM-1 molecule into the insect cell secretory pathway, the VCAM-1 coding sequence was fused to signal peptide sequence of honeybee melittin. The resulting melittin-VCAM fusion was placed in correct orientation to the baculovirus polyhedrin promoter. Baculovirus transfer vector containing first 3-domain form VCAM-1 (pH10) was constructed by ligation of 0.9 kb fragment from AvrII/Klenow/BclI digests of pH7 into SalI/Klenow/BamHI digests of pMelBacB (Invitrogen). Recombinant baculovirus was generated by using Bac-N-Blue™ Transfection kit (Invitrogen) according to the manufacture's instruction. The recombinant virus was amplified by infection to High-Five™ insect cells for 5-6 days, and virus titer was determined by plaque assay.
High-Five™ insect cells were pelleted in a 225 ml conical tube by centrifugation at 1000 rpm for 5 min. After discarding the supernatant, the pellet was resuspended in 1.5×10^9 pfu (MOI=5) of high-titer virus solution, followed by incubation for 1.5 hours at room temperature. The cells were pelleted again and washed once in fresh Express Five™ serum free medium. The cells were pelleted again and finally, resuspended in 200 ml of fresh Express Five TM medium, transferred to a 1,000 ml shaker flask, and incubated in a shaker at 27° C., 130 rpm, for 48 hours before the culture supernatant was collected. The purification of 3-domain form of VCAM-1 from the culture supernatant was performed by one-step anion exchange chromatography. Protein concentration was determined by using Coomassie protein assay reagent (Pierce) according to the manufacture's instruction.
Preparation of VCAM-1 Coated Microtiter Plates
Recombinant human VCAM-1 (extracellular domains 1-3) was dissolved at 1.0 μg/ml in PBS. Each well of the microtiter plates (Nalge Nunc International, Fluoronunc Cert, 437958) was coated with 100 μl of substrate or for background control with buffer alone for 15 hours at 4 C. After discarding the substrate solution, the wells were blocked using 150 μl per well of block solution (Kirkegaard Perry Laboratories, 50-61-01) for 90 minutes. The plate was washed with wash buffer containing 24 mM Tris-HCl (pH 7.4), 137 mM NaCl, […] and 2 mM MnCl2 just before addition of the assay.
In Vitro Assay using Ramos Cells
Preparation of Fluorescence Labeled Ramos Cells:
Ramos cells (American Type Culture Collection, Clone CRL-1596) were cultured in RPMI 1640 medium (Nikken Bio Medical Laboratory, CM1101) supplemented with 10% fetal bovine serum (Hyclone, A-1119-L), 100 U/ml penicilin (Gibco BRL, 15140-122) and 100 μg/ml streptomycin (Gibco BRL, 15140-122) in a humidified incubator at 37° C. with 5% CO2. […]

[1] = observed IC50 value ranges, Table 4 does not say whether Ramos-VCAM-1 or Jurkat-VCAM-1, read-out: IC50

| IC50 (Ramos) [nM] | Compound | IC50 [1] [nM] |
| --- | --- | --- |
| < 500 | CCCN(CC(=O)Nc1ccc(C(=O)O)cc1)C(=O)Cc1ccc(NC(=O)Nc2ccccc2C)cc1 [Example 65, 4-[(N-{[4-({[(2-methylphenyl)amino]carbonyl}amino)phenyl]acetyl}-N-propylglycyl)amino]benzoic acid] |  |
| < 500 | Cc1ccccc1NC(=O)Nc1ccc(CC(=O)N(CC(=O)Nc2ccc(C(=O)O)cc2)CC2CCNCC2)cc1 [Example 62, 4-{[N-{[4-({[(2-methylphenyl)amino]carbonyl}amino)phenyl]acetyl}-N-(4-piperidinylmethyl)glycyl]amino}benzoic acid] |  |
| < 500 | COCCN(CC(=O)Nc1ccc(C(=O)O)cc1)C(=O)Cc1ccc(NC(=O)Nc2ccccc2C)cc1 [Example 67, 4-[(N-(2-methoxyethyl)-N-{[4-({[(2-methylphenyl)amino]carbonyl}amino)-phenyl]acetyl}glycyl)amino]benzoic acid] |  |
| < 500 | Cc1ccccc1NC(=O)Nc1ccc(CC(=O)N(CCCN2CCOCC2)CC(=O)Nc2ccc(C(=O)O)cc2)cc1 [Example 68, 4-({N-{[4-({[(2-methylphenyl)amino]carbonyl}amino)phenyl]acetyl}-N-[3-(4-morpholinyl)propyl]glycyl}amino)benzoic acid] |  |
| < 500 | Cc1ccccc1NC(=O)Nc1ccc(CC(=O)N(CC(=O)Nc2ccc(C(=O)O)cc2)Cc2ccncc2)cc1 [Example 71, 4-{[N-{[4-({[(2-methylphenyl)amino]carbonyl}amino)phenyl]acetyl}-N-(4-yridinylmethyl)glycyl]amino}benzoic acid] |  |
| < 500 | COc1cc(CCN(CC(=O)Nc2ccc(C(=O)O)cc2)C(=O)Cc2ccc3nc(Nc4ccccc4)oc3c2)cc(OC)c1 [Example 77, 4-({N-[(2-anilino-1,3-benzoxazol-6-yl)acetyl]-N-[2-(3,5-dimethoxyphenyl)-ethyl]glycyl}amino)benzoic acid] |  |
| < 500 | Cc1ccccc1NC(=O)Nc1ccc(CC(=O)N(CC(=O)Nc2ccc(C(=O)O)cc2)CC(C)(C)CN)cc1 [Example 63, 4-[(N-(3-amino-2,2-dimethylpropyl)-N-{[4-({[(2-methylphenyl)amino]-carbonyl}amino)phenyl]acetyl}glycyl)amino]benzoic acid] |  |
| < 500 | COc1cccc(CCN(CC(=O)Nc2ccc(C(=O)O)cc2)C(=O)Cc2ccc3nc(Nc4ccccc4)oc3c2)c1 [Example 87, 4-({N-[(2-anilino-1,3-benzoxazol-6-yl)acetyl]-N-[2-(3-methoxyphenyl)ethyl]-glycyl}amino)benzoic acid] |  |
| < 500 | Cc1ccccc1NC(=O)Nc1ccc(CC(=O)N(CCc2c[nH]cn2)CC(=O)Nc2ccc(C(=O)O)cc2)cc1 [Example 72, 4-[(N-[2-(1H-imidazol-4-yl)ethyl]-N-{[4-({[(2-methylphenyl)amino]carbonyl}amino)phenyl]acetyl}glycyl)amino]benzoic acid] |  |
| < 500 | Cc1ccccc1NC(=O)Nc1ccc(CC(=O)N(CCCN2CCCC2)CC(=O)Nc2ccc(C(=O)O)cc2)cc1 [Example 58, 4-({N-{[4-({[(2-methylphenyl)amino]carbonyl}amino)phenyl]acetyl}-N-[3-(1-pyrrolidinyl)propyl]glycyl}amino)benzoic acid] |  |
| < 500 | Cc1ccccc1NC(=O)Nc1ccc(CC(=O)N(CC(=O)Nc2ccc(C(=O)O)cc2)Cc2cccnc2)cc1 [Example 69, 4-{[N-{[4-({[(2-methylphenyl)amino]carbonyl}amino)phenyl]acetyl}-N-(3-pyridinylmethyl)glycyl]amino}benzoic acid] |  |
| < 500 | Cc1ccccc1NC(=O)Nc1ccc(CC(=O)N(CCCN2CCN(c3ccccc3)CC2)CC(=O)Nc2ccc(C(=O)O)cc2)cc1 [Example 60, 4-({N-{[4-({[(2-methylphenyl)amino]carbonyl}amino)phenyl]acetyl}-N-[3-(4-phenyl-1-piperazinyl)propyl]glycyl}amino)benzoic acid] |  |

Continued, molecule first:

| Compound | IC50 (Ramos) [nM] | IC50 [1] [nM] |
| --- | --- | --- |
| Cc1ccccc1NC(=O)Nc1ccc(CC(=O)N(CCCN(C)C)CC(=O)Nc2ccc(C(=O)O)cc2)cc1 [Example 56, 4-[(N-[3-(dimethylamino)propyl]-N-{[4-({[(2-methylphenyl)amino]carbonyl}amino)phenyl]acetyl}glycyl)amino]benzoic acid] | < 500 |  |
| Cc1ccccc1NC(=O)Nc1ccc(CC(=O)N[C@@H](CC(=O)O)C(=O)Nc2ccc(C(=O)O)cc2)cc1 [Example 42, 4-[(N-{[4-({[(2-methylphenyl)amino]carbonyl}amino)phenyl]acetyl}-L-α-aspartyl)amino]benzoic acid] | < 500 |  |
| Cc1ccccc1NC(=O)Nc1ccc(CC(=O)N[C@@H](Cc2cscn2)C(=O)Nc2ccc(C(=O)O)cc2)cc1 [Example 46, 4-{[N-{[4-({[(2-methylphenyl)amino]carbonyl}amino)phenyl]acetyl}-3-(1,3-thiazol-4-yl)-L-alanyl]amino}benzoic acid] | < 500 |  |
| Cc1ccccc1NC(=O)Nc1ccc(CC(=O)N(CCCCN)CC(=O)Nc2ccc(C(=O)O)cc2)cc1 [Example 57, 4-[(N-(4-aminobutyl)-N-{[4-({[(2-methylphenyl)amino]carbonyl}amino)-phenyl]acetyl}glycyl)amino]benzoic acid] | < 500 |  |
| Cc1ccccc1NC(=O)Nc1ccc(CC(=O)N[C@@H](Cc2c[nH]c3ccccc23)C(=O)Nc2ccc(C(=O)O)cc2)cc1 [Example 43, 4-[(N-{[4-({[(2-methylphenyl)amino]carbonyl}amino)phenyl]acetyl}-L-tryptophyl)amino]benzoic acid] | < 500 |  |
| Cc1ccccc1NC(=O)Nc1ccc(CC(=O)N[C@@H](Cc2cnc[nH]2)C(=O)Nc2ccc(C(=O)O)cc2)cc1 [Example 47, 4-[(N-{[4-({[(2-methylphenyl)amino]carbonyl}amino)phenyl]acetyl}-L-histidyl)amino]benzoic acid] | < 500 |  |
| Cc1ccccc1NC(=O)Nc1ccc(CC(=O)N(CCN2CCCC2)CC(=O)Nc2ccc(C(=O)O)cc2)cc1 [Example 64, 4-({N-{[4-({[(2-methylphenyl)amino]carbonyl}amino)phenyl]acetyl}-N-[2-(1-pyrrolidinyl)ethyl]glycyl}amino)benzoic acid] |  | < 500 |
| Cc1ccccc1NC(=O)Nc1ccc(CC(=O)N[C@@H](Cc2cccnc2)C(=O)Nc2ccc(C(=O)O)cc2)cc1 [Example 45, 4-{[N-{[4-({[(2-methylphenyl)amino]carbonyl}amino)phenyl]acetyl}-3-(3-pyridinyl)-L-alanyl]amino}benzoic acid] | < 500 |  |
| Cc1ccccc1NC(=O)Nc1ccc(CC(=O)N[C@@H](CCCN)C(=O)Nc2ccc(C(=O)O)cc2)cc1 [Example 41, 4-[(N^2-{[4-({[(2-methylphenyl)amino]carbonyl}amino)phenyl]acetyl}-L-ornithyl)amino]benzoic acid] | < 500 |  |
| CCN1CCCC1CN(CC(=O)Nc1ccc(C(=O)O)cc1)C(=O)Cc1ccc(NC(=O)Nc2ccccc2C)cc1 (centres unmarked) [Example 59, 4-[(N-[(1-ethyl-2-pyrrolidinyl)methyl]-N-{[4-({[(2-methylphenyl)amino]-carbonyl}amino)phenyl]acetyl}glycyl)amino]benzoic acid] |  | < 500 |
| Cc1ccccc1NC(=O)Nc1ccc(CC(=O)N[C@@H](CCN)C(=O)Nc2ccc(C(=O)O)cc2)cc1 [Example 40, 4-{[(2S)-4-amino-2-({[4-({[(2-methylphenyl)amino]carbonyl}amino)phenyl]acetyl}amino)butanoyl]amino}benzoic acid] | < 500 |  |
